Measured values reported in patent publication US9969710B2, “Heteroaryl compounds as IRAK inhibitors and uses thereof” (Merck Patent GmbH, priority 2015, dated 2018).

How the values were obtained:
IRAK1 = target: T1, IRAK1 (Homo sapiens, UniProt P51617); assay: IRAK1 enzymatic assay (ADP-Glo luminescence); assay type: biochemical; settings: human recombinant His-TEV-IRAK1 (194-712), ATP 1 μM; read-out: IRAK 1 IC50
T1 construct: His-TEV-IRAK1 (194-712); His (N); TEV cleavage site (N)
Procedure: IRAK1 is a human purified recombinant enzyme (His-TEV-IRAK1 (194-712))
In this assay, IRAK1 hydrolyses ATP and autophosphorylates. Measurement of IRAK-1 inhibition is performed in 384-well format based on luminescence assay (ADP-Glo™ Kinase Assay from Promega). Purified human recombinant IRAK1 ([…]) and serial diluted compounds in DMSO (range of concentration from 10 μM to 0.5 nM) or controls (1% DMSO) are incubated for 15 minutes at RT in assay buffer containing 50 mM Hepes pH 7.0, Fatty acid-free BSA 0.1%, Dithiothreitol (DTT) 2 mM, MgCl2 10 mM, EGTA 0.5 mM, Triton X-100 0.01%. The kinase reaction is then initiated by the addition of ATP at a concentration of 1 μM. After 2 hours of incubation at RT, the reaction is stopped and the unconsumed ATP depleted by the addition of ADP-Glo™ Reagent according to supplier instructions. After 40 minutes of incubation at RT, the Kinase Detection Reagent is then added to the assay plate according to supplier instructions. After 20 minutes of incubation at RT, the luminescence signal is measured with a luminometer (PerkinElmer Envision or equivalent reader).

IRAK4 = target: T2, IRAK4 (Homo sapiens, UniProt Q9NWZ3); assay: IRAK4 enzymatic assay (ADP-Glo luminescence); assay type: biochemical; settings: human recombinant His-TEV-IRAK4 (1-460), STK1-biotin peptide substrate
T2 construct: His-TEV-IRAK4 (1-460); His (N); TEV cleavage site (N)
T2 sequence (Q9NWZ3 1-460): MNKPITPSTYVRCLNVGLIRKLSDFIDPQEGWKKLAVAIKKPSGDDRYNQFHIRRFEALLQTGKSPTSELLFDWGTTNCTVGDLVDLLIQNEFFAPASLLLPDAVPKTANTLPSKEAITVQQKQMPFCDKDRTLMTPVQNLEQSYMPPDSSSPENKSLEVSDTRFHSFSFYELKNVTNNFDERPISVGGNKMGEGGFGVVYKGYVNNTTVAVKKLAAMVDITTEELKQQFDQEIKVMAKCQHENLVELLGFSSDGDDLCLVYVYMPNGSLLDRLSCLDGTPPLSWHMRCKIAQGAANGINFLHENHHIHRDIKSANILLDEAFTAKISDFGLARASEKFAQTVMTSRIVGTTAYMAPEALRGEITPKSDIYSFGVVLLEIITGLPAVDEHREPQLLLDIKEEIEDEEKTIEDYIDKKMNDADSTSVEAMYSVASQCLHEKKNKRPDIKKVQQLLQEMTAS
Procedure: IRAK4 is a human purified recombinant enzyme (His-TEV-IRAK4 (1-460)).
In this assay, IRAK4 hydrolyses ATP, autophosphorylates and phosphorylates a Serine/Threonine generic peptidic substrate (STK: 61ST1BLC from CisBio International). Measurement of IRAK-4 inhibition is performed in 384-well format based on a luminescence assay (ADP-Glo™ Kinase Assay from Promega). Purified human recombinant IRAK4 ([…]) and serial diluted compounds in DMSO (range of concentration from 10 μM to 0.5 nM) or controls (1% DMSO) are incubated for 15 minutes at RT in assay buffer containing 50 mM Hepes pH 7.0, Fatty acid-free BSA 0.1%, Dithiothreitol (DTT) 2 mM, MgCl2 10 mM, EGTA 0.5 mM, Triton X-100 0.01%, MnCl2 5 mM. The kinase reaction is then initiated by the addition of ATP ([…]) and the peptidic substrate STK1-biotin peptide (300 nM). After 2 hours of incubation at RT, the reaction is stopped and the unconsumed ATP depleted by the addition of ADP-Glo™ Reagent according to supplier instructions. After 40 minutes of incubation at RT, the Kinase Detection Reagent is then added to the assay plate according to supplier instructions. After 20 minutes of incubation at RT, the luminescence signal is measured with a plate-reading luminometer (PerkinElmer Envision or equivalent reader).

[1] = system: TLR7 induced IL-6 secretion in human mononuclear cells (PBMC's); assay: TLR7 induced IL-6 in human PBMC's; assay type: cell-based; settings: TLR7 specific ligand 2 uM overnight, IL-6 AlphaLISA
Procedure: TLR7 Induced IL-6 in Human PBMC's
Human PBMC assay was used as one of the functional assaya to monitor the activity of IRAK1 and IRAK4 small molecule inhibitors on TLR7 induced IL-6 secretion in human mononuclear cells (PBMC's). Human PBMCs were prepared from buffy coats (whole blood enriched with leukocytes and platelets) obtained from healthy volunteers used either fresh or frozen are plated in assay media (RPMI+2% P/S/L-glu+10% HI-FBS) and pre-treated with compounds in DMSO/media (range of concentrations from 25 uM to 0.4 nM) or controls (0.25% DMSO) for 30 minutes at 37° C. in assay media. Following pre-treatment with IRAK1 and IRAK4 inhibitors, PBMC's were stimulated with TLR7 specific ligand (2 uM) overnight (16-18 hrs) at 37° C. After incubation supernatant was transferred to 384 well PE AlphaPlate-384 (6005350) and IL-6 is quantified using Perkin Elmer IL-6 Alpha LISA kit (AL223C). Plates were read on an Envision® plate reader with Alpha Technology®.

T1 sequence (P51617 194-712): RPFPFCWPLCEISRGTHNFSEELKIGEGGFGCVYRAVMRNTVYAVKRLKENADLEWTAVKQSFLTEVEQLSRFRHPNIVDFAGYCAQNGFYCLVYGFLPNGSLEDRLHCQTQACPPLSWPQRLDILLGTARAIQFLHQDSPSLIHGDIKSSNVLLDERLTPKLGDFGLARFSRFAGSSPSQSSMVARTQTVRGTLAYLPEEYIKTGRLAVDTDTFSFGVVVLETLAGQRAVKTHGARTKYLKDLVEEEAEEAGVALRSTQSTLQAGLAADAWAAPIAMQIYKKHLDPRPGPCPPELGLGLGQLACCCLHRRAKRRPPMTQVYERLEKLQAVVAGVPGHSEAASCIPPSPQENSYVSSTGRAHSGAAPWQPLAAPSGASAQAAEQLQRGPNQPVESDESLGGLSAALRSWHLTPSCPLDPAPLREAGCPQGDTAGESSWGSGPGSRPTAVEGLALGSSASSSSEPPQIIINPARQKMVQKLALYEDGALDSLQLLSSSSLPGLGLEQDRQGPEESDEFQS

Row | SMILES | IC50 (IRAK1) [nM] | IC50 (IRAK4) [nM] | melting point [°C] | IC50 ([1]; Homo sapiens, PBMC) [nM] | IC50 [1] [nM]
1 | CN1CCC(C)(c2ccc3c(c2)nc(NC(=O)c2cccc(C(F)(F)F)c2)n3CCCO)C1=O (stereo not drawn) [Compound 29, N-[5-(1,3-Dimethyl-2-oxo-pyrrolidin-3-yl)-1-(3-hydroxy-propyl)-1H-benzoimidazol-2-yl]-3-trifluoromethyl-benzamide] | 1000 to 10000 | ≤ 100 | 72 to 74 |  | 
2 | CN1CCOC(c2ccc3c(c2)nc(NC(=O)c2cccc(C(F)F)c2)n3CC(C)(F)CO)C1=O (stereo not drawn) [Compound 26, 3-Difluoromethyl-N-[1-(2-fluoro-3-hydroxy-2-methyl-propyl)-5-(4-methyl-3-oxo-morpholin-2-yl)-1H-benzoimidazol-2-yl]-benzamide] | 100 to 1000 | ≤ 100 | 118 to 120 | 100 to 1000 | 
3 | CN1CCOC(c2ccc3c(c2)nc(NC(=O)c2cccc(C(F)(F)F)c2)n3CC(C)(F)CO)C1=O (stereo not drawn) [Compound 28, N-[1-(2-Fluoro-3-hydroxy-2-methyl-propyl)-5-(4-methyl-3-oxo-morpholin-2-yl)-1H-benzoimidazol-2-yl]-3-trifluoromethyl-benzamide] | 100 to 1000 | ≤ 100 | 121 to 124 | ≤ 100 | 
4 | CN1CCC(c2ccc3c(c2)nc(NC(=O)c2cccc(C(F)F)c2)n3CCCO)C1=O (stereo not drawn) [Compound 24, 3-(difluoromethyl)-N-[1-(3-hydroxypropyl)-5-(1-methyl-2-oxopyrrolidin-3-yl)-1H-1,3-benzodiazol-2-yl]benzamide] | 100 to 1000 | ≤ 100 | 166 to 168 | ≤ 100 | 
5 | CN1CCC[C@@H](c2ccc3c(c2)[nH]/c(=N\C(=O)c2cccc(C(F)F)c2)n3C[C@@](C)(F)CO)C1=O [Compound 3d, 3-(difluoromethyl)-N-[(2E)-1-[(2R)-2-fluoro-3-hydroxy-2-methylpropyl]-5-[(3S)-1-methyl-2-oxopiperidin-3-yl]-2,3-dihydro-1H-1,3-benzodiazol-2-ylidene]benzamide] | ≤ 100 | ≤ 100 |  | ≤ 100 | 
6 | CN1CCC[C@@H](c2ccc3c(c2)[nH]/c(=N\C(=O)c2cccc(C(F)F)c2)n3C[C@](C)(F)CO)C1=O (single isomer, unassigned) [Compound 3b] | 1000 to 10000 | ≤ 100 |  | 100 to 1000 | 
7 | CN1CCCC(c2ccc3c(c2)[nH]/c(=N\C(=O)c2cccc(C(F)(F)F)c2)n3CCC(O)CO)C1=O (single isomer, unassigned) [Compound 22b] | ≤ 100 | ≤ 100 |  |  | ≤ 100
8 | C=CCCn1/c(=N/C(=O)c2cccc(C(F)(F)F)c2)[nH]c2cc(C3CCCN(C)C3=O)ccc21 (stereo not drawn) [Compound 18, N-[1-But-3-enyl-5-(1-methyl-2-oxo-piperidin-3-yl)-1,3-dihydro-benzoimidazol-(2E)-ylidene]-3-trifluoromethyl-benzamide] | 100 to 1000 | ≤ 100 |  | 100 to 1000 | 
9 | CN1CCC(c2ccc3c(c2)nc(NC(=O)c2cccc(C(F)(F)F)c2)n3CCCO)C1=O (single isomer, unassigned) [Compound 23a] | 100 to 1000 | ≤ 100 |  | ≤ 100 | 
10 | CN1C(=O)CCC1(C)c1ccc2c(c1)nc(NC(=O)c1cccc(C(F)(F)F)c1)n2CCCO (single isomer, unassigned) [Compound 32a] | 100 to 1000 | ≤ 100 |  | 1000 to 10000 | 
11 | CN1CCC(C)(c2ccc3c(c2)nc(NC(=O)c2cccc(C(F)F)c2)n3CCCO)C1=O (stereo not drawn) [Compound 30, 3-Difluoromethyl-N-[5-(1,3-dimethyl-2-oxo-pyrrolidin-3-yl)-1-(3-hydroxy-propyl)-1H-benzoimidazol-2-yl]-benzamide] |  | ≤ 100 | 78 to 81 | 1000 to 10000 | 
12 | CC(=O)N1CCCC(c2ccc3c(c2)[nH]/c(=N\C(=O)c2cccc(C(F)(F)F)c2)n3CCCO)C1 (stereo not drawn) [Compound 14, (E)-N-(5-(1-acetylpiperidin-3-yl)-1-(3-hydroxypropyl)-1H-benzo[d]imidazol-2(3H)-ylidene)-3-(trifluoromethyl)benzamide] | ≤ 100 | ≤ 100 |  | ≤ 100 | 
13 | CN1C(=O)CCC1(C)c1ccc2c(c1)nc(NC(=O)c1cccc(C(F)(F)F)c1)n2CCCO (single isomer, unassigned) [Compound 32b] | 100 to 1000 | ≤ 100 |  |  | 1000 to 10000
14 | CC(=O)N1CCC(c2ccc3c(c2)[nH]/c(=N\C(=O)c2cccc(C(F)(F)F)c2)n3CCCO)C1 (stereo not drawn) [Compound 12, (E)-N-(5-(1-acetylpyrrolidin-3-yl)-1-(3-hydroxypropyl)-1H-benzo[d]imidazol-2(3H)-ylidene)-3-(trifluoromethyl)benzamide] | 100 to 1000 | ≤ 100 |  | 100 to 1000 | 
15 | CN1C[C@H](c2ccc3c(c2)nc(NC(=O)c2cccc(C(F)(F)F)c2)n3CCCO)C(C)(C)C1=O [Compound 25b, N-[1-(3-hydroxypropyl)-5-[(3R)-1,4,4-trimethyl-5-oxopyrrolidin-3-yl]-1H-1,3-benzodiazol-2-yl]-3-(trifluoromethyl)benzamide] | 100 to 1000 | ≤ 100 |  | 100 to 1000 | 
16 | CN1CCCC(c2ccc3c(c2)[nH]/c(=N\C(=O)c2cccc(C(F)(F)F)c2)n3C[C@](C)(F)CO)C1=O (stereo partly drawn) [Compound 16, (E)-N-(1-((S)-2-fluoro-3-hydroxy-2-methylpropyl)-5-(1-methyl-2-oxopiperidin-3-yl)-1H-benzo[d]imidazol-2(3H)-ylidene)-3-(trifluoromethyl)benzamide] | 100 to 1000 | ≤ 100 |  | 100 to 1000 | 
17 | CN1CC(c2ccc3c(c2)[nH]/c(=N\C(=O)c2cccc(C(F)(F)F)c2)n3CCCO)CC1=O (stereo not drawn) [Compound 10, (E)-N-(1-(3-hydroxypropyl)-5-(1-methyl-5-oxopyrrolidin-3-yl)-1H-benzo[d]imidazol-2(3H)-ylidene)-3-(trifluoromethyl)benzamide] | 100 to 1000 | ≤ 100 |  | 100 to 1000 | 
18 | CN1C(=O)CCC1(C)c1ccc2c(c1)nc(NC(=O)c1cccc(C(F)F)c1)n2CCCO (single isomer, unassigned) [Compound 31a] | 100 to 1000 | ≤ 100 |  | 1000 to 10000 | 
19 | CN1CC[C@H](c2ccc3c(c2)nc(NC(=O)c2cccc(C(F)(F)F)c2)n3CCCO)C1=O [Compound 23b, N-[1-(3-hydroxypropyl)-5-[(3R)-1-methyl-2-oxopyrrolidin-3-yl]-1H-1,3-benzodiazol-2-yl]-3-(trifluoromethyl) benzamide] | 100 to 1000 | ≤ 100 |  | 100 to 1000 | 
